US20050181066A1, “Novel use of guanylate cyclase activators for the treatment of respiratory insufficiency” (Altana Pharma AG, priority 2002, published 2005)
Entries after “also recorded” stand apart in the source; their conditions may differ.

Experiments:
isolated rabbit lung = assay: Isolated, bloodlessly perfused and ventilated rabbit lung with U46619-induced acute pulmonary hypertension; conditions: for effect on pulmonary arterial pressure (FIG. 1): U46619-induced pulmonary hypertension, NO 10, 50, 100, 200 ppm cumulatively by inhalation, YC-1 0.1 μM, enhancement at 50, 100, 200 ppm NO, n=6
Description: Model of the Isolated, Bloodlessly Perfused and Ventilated Rabbit Lung
The test animal was anaesthetized by injection of about 700 μl of a mixture of Ketanest and Rompun in the ratio 3:2. The spontaneous breathing of the animal was maintained with this initial anaesthesia. 1 000 I.U. of heparin per kg of bodyweight were injected through the venous access for anticoagulation. For the intubation, 7 ml of Xylocaine were injected into the subcutaneous tissue of the animal's neck. A tube was introduced into the trachea underneath the larynx and was used from this instant onwards to ventilate the animal with ambient air through the ventilating pump (breathing rate: […], tidal volume 30 ml). About 3 ml of the anaesthetic mixture were administered over a period of 15 min. The lungs were then removed by a standard technique; likewise dissection of the pulmonary artery and the ascending aorta.
To make it possible to remove the lung from the body's own perfusion without interruption, the pulmonary artery catheter of the perfusion system was, after incision of the right ventricle, advanced into the pulmonary artery and fixed there by means of the open ligature. After cutting off the apex of the heart and closing the ascending aorta, the lung was artificially perfused with Krebs-Henseleit buffer cooled to 4° C. (the cooling served to reduce metabolism) at 20 ml/min. The ambient air was replaced by a 5% CO2, 15% O2 and 80% N2 gas mixture.
The lung was dissected out of the thorax, and a connector was sutured into the left heart to allow the perfusion circulation to be completed. The lung was suspended on a weighing cell and the perfusion circulation was completed through the connector. The lung perfusate then flowed out through a pressure cascade. The temperature of the complete system was raised to 38° C. and the pressure recording started. In the system, the pulmonary artery pressure, the left ventricular pressure, the ventilation pressure and the weight were recorded continuously. […]

[1] = tested on: anaesthetized and ventilated rabbit with oleic acid-induced lung damage; assay: Whole animal model of acute pulmonary hypertension with severe gas exchange impairment through oleic acid (MIGET, haemodynamics); assay type: in vivo; conditions: for effect on pulmonary arterial pressure (FIG. 2) / effect on systemic arterial pressure (FIG. 3): NO 10, 34, 70, 120, 200 ppm by inhalation, YC-1 5 mg infusion over 10 min; for effect on pulmonary arterial pressure (FIG. 2) / effect on systemic arterial pressure (FIG. 3) / effect on arterial oxygenation / oxygenation index (FIG. 6) / effect on intrapulmonary shunting (MIGET, FIG. 5) / effect on perfusion of normally ventilated areas of the lung (normal V/Q, MIGET, FIG. 7) / effect on pulmonary arterial pressure (FIG. 4): n=6; for effect on arterial oxygenation / oxygenation index (FIG. 6): 150 min after oleic acid injection; for intrapulmonary shunting (MIGET): oleic acid (OA) group 33±2 %; for arterial oxygenation: oleic acid (OA) group 123±13 mmHg; for effect on intrapulmonary shunting (MIGET, FIG. 5) / effect on perfusion of normally ventilated areas of the lung (normal V/Q, MIGET, FIG. 7) / effect on pulmonary arterial pressure (FIG. 4): YC-1 5 mg infusion 30-40 min after oleic acid
Description: Whole Animal Model of Acute Pulmonary Hypertension with Severe Gas Exchange Impairment Through Infusion of Oleic Acid
The test animals In the rabbit model were anaesthetized by injection of about 700 μl of a mixture of Ketanest and Rompun in the ratio 3:2. The spontaneous breathing of the animal was maintained with this initial anaesthesia. 1 000 I.U. of heparin per kg of bodyweight were injected for anticoagulation. For the intubation, 7 ml of Xylocaine were injected into the subcutaneous tissue of the animal's neck. A tube was introduced into the trachea underneath the larynx and was used from this instant onwards for ventilation of the animal through the ventilation pump (breathing rate: […], tidal volume 35 ml). The animal underwent standard ventilation with a 50% N2 and a 50% O2 gas mixture. 7 ml/h of the anaesthetic mixture were administered through a Perfusor, which led to a deep analgesia and relaxation of the animal. The left common carotid artery was ligated and punctured for measurement of the arterial pressure. […] Through this port, a 4F balloon catheter was placed in the right ventricle and the right ventricular pressure was recorded. The gas exchange was analysed by the multiple inert gas elimination technique (MIGET). The MIGET is based on elimination and retention of a plurality of inert gases. Central venous infusion thereof in dissolved form into the animal via the ear margin vein was therefore necessary. This infusion solution was prepared by introducing 250 ml of the perfusate without air bubbles into a gas-tight bag. 0.5 ml of liquid halothane was put into this bag through an injection plug. The bag was then filled with a test gas mixture (10% SF6 3.0, 20% cyclopropane 2.0 and 70% ethane 2.5) and the gases were dissolved in the perfusate. 0.15 ml of diethyl ether was injected, followed by 0.7 ml of acetone. This solution was infused continuously at 30 ml/h into the animal during the equilibration period after change of the perfusate. An equilibrium between retention and elimination of the gases was set up within a period of 30-40 min. After this time, 2.5 ml samples were taken simultaneously from the arterial and venous blood by gas-tight 50 ml glass syringes (B-D Yale, Becton, Dickinson & Co, USA). The arterial and the venous sample was then weighed, blanketed with 15 ml of nitrogen gas (ECD grade) and incubated at 38° C. in a shaking water bath (135 min^−1). During this time, an equilibrium, depending on the solubility of the gas, was set up between the gaseous and liquid phase. After the equilibration time had elapsed, the total volume of the syringe was determined and the supernatant gas was transferred into an air-tight 30 ml glass syringe (B-D Yale, Becton, Dickinson & Co, USA) preheated to 38° C. The latter was stored at 38° C. and used for gas chromatographic analysis. Immediately after removal of the arterial and venous perfusate, a sample of the expired air from the isolated lung was taken by a preheated 30 ml glass syringe on an expiratory gas mixing box. This gaseous sample was analysed immediately in a gas chromatograph. The gases were analysed by a computer-assisted calculation through which essentially the following parameters were calculated: shunting (perfusion, unventilated regions of the lung), normal V/Q (perfusion in normally ventilated regions of the lung).
Besides the MIGET data, the following haemodynamic parameters were determined: • pulmonary arterial pressure • systemic arterial pressure • arterial oxygen partial pressure (pO2)
Catheterization of the animal was followed by injection of 50 μg of oleic acid (OA) into the pulmonary artery. The pulmonary arterial pressure rose after this injection from 11-13 mmHg to a stable plateau of 17-18 mmHg. This rise in the pulmonary arterial pressure was accompanied by severe gas exchange impairment essentially characterized by a fall in the arterial oxygenation and a rise in the shunt perfusion (measured by the MIGET). […]

[2] = tested on: ventilated patients suffering from acute adult respiratory distress syndrome (ARDS); conditions: inhaled; cited from earlier work
[3] = tested on: patients with post-traumatic pulmonary dysfunction; conditions: infusion; 11 patients; cited from earlier work
[4] = tested on: rabbit model of acute pulmonary hypertension; conditions: cited from earlier work; for effect on pulmonary hypertension / pulmonary and systemic vasodilatation: systemic (intravenous) administration, in the combination a dose of dipyridamole with no activity per se
[5] = tested on: patients with bronchial asthma; conditions: intravenous administration; cited from earlier work
[6] = NO 100 ppm inhaled 30-150 min, YC-1 5 mg infusion 30-40 min

[N]=O [NO, nitric oxide]
effect on pulmonary arterial pressure (FIG. 1) (isolated rabbit lung): dose-dependent reduction in the pulmonary arterial pressure
effect on pulmonary arterial pressure (FIG. 2) ([1]; 50 μg oleic acid): dose-dependent reduction in the pulmonary arterial pressure
effect on systemic arterial pressure (FIG. 3) ([1]; 50 μg oleic acid): remained unchanged; also recorded: did not lead to a dose-dependent reduction in the systemic arterial pressure
effect on arterial oxygenation / oxygenation index (FIG. 6) [1, 6]: significant increase in the arterial oxygenation
pulmonary arterial pressure ([1]; NO 100 ppm inhaled 30-150 min, YC-1 5 mg infusion 30-40 min, oleic acid (OA) group 17.8±1.6 mmHg): 14.5±1.8 mmHg
intrapulmonary shunting (MIGET) [1, 6]: 23±3%
arterial oxygenation [1, 6]: 234±21 mmHg
effect on intrapulmonary shunting (MIGET, FIG. 5) ([1]; NO 100 ppm inhaled 30-150 min): reduction in the intrapulmonary shunting
effect on perfusion of normally ventilated areas of the lung (normal V/Q, MIGET, FIG. 7) ([1]; NO 100 ppm inhaled 30-150 min): significant increase in the perfusion of normally ventilated areas of the lung
effect on pulmonary arterial pressure (FIG. 4) ([1]; NO 100 ppm inhaled 30-150 min): reduction in the pulmonary arterial pressure
effect on gas exchange [2]: improvement in gas exchange

O=[N+]([O-])OCC(CO[N+](=O)[O-])O[N+](=O)[O-] [Ng, 1,2,3-propanetriyl trinitrate]
effect on acute pulmonary hypertension [3]: reduction in the acute pulmonary hypertension
effect on arterial oxygen content [3]: deterioration in the arterial oxygen content

CCCCC[C@H](O)/C=C/[C@@H]1[C@@H](C/C=C\CCCC(=O)O)[C@H]2CO[C@@H]1C2 [U46619]
pulmonary arterial pressure raised by U46619 (isolated rabbit lung; continuous intravascular 70 to 160 pmol/kg min U46619, raised from 6-8 mmHg): 33-35 mmHg

OCc1ccc(-c2nn(Cc3ccccc3)c3ccccc23)o1 [YC-1, 3-(5′-Hydroxymethyl-2′-furyl)-1-benzyl indazole]
effect on pulmonary arterial pressure (FIG. 1) (isolated rabbit lung): no intrinsic effect on the pulmonary arterial pressure
effect on pulmonary arterial pressure (FIG. 2) ([1]; 50 μg oleic acid): no effect on the measured parameters
effect on systemic arterial pressure (FIG. 3) ([1]; 50 μg oleic acid): no effect on the measured parameters
effect on arterial oxygenation / oxygenation index (FIG. 6) [1, 6]: significant effect on the oxygenation index
intrapulmonary shunting (MIGET) [1, 6]: 21±4%
arterial oxygenation [1, 6]: 215±8 mmHg
effect on intrapulmonary shunting (MIGET, FIG. 5) ([1]; NO 100 ppm inhaled 30-150 min): no significant effect on intrapulmonary shunting
effect on perfusion of normally ventilated areas of the lung (normal V/Q, MIGET, FIG. 7) ([1]; NO 100 ppm inhaled 30-150 min): no significant effect on the perfusion of normally ventilated areas of the lung
effect on pulmonary arterial pressure (FIG. 4) ([1]; NO 100 ppm inhaled 30-150 min): no effect on the pulmonary arterial pressure

OCCN(CCO)c1nc(N2CCCCC2)c2nc(N(CCO)CCO)nc(N3CCCCC3)c2n1 [dipyridamole]
effect on pulmonary hypertension / pulmonary and systemic vasodilatation [4]: dose-dependent reduction in the pulmonary and systemic vasodilatation

CCCCCCCC/C=C\CCCCCCCC(=O)O [oleic acid]
intrapulmonary shunting after oleic acid injection ([1]; 50 μg oleic acid): 30-35%
pulmonary arterial pressure plateau after oleic acid injection ([1]; 50 μg oleic acid into the pulmonary artery, rise from 11-13 mmHg): 17-18 mmHg

urodilatin
effect on pressure in the systemic circulation ([4]; intravenous administration): reduces the pressure in the systemic circulation to the same extent
effect on pulmonary hypertension / pulmonary and systemic vasodilatation [4]: dose-dependent reduction in the pulmonary and systemic vasodilatation; also recorded: marked reduction in pulmonary hypertension
effect on ventilatory parameters [5]: improvement in the ventilatory parameters
